Data: patent US8263601B2, “Deuterium substituted xanthine derivatives” (CoNCERT Pharmaceuticals, Inc., priority 2009, dated 2012)
Read-outs that look alike come from different tables or passages of the source.

Key:
[1] = Pharmacokinetic study in rats of (S)-M1 and Compound 435(S) after oral dosing (Example 37); format: in vivo, male Sprague-Dawley rats
Procedure: (§1) (S)-M1 and Compound 435(S) (a deuterated form of (S)-M1) were separately dissolved in saline at a concentration of 10 mg/mL. A 1:1 mixture of the two compounds was then prepared containing a final concentration of 5 mg/mL of each compound, which was used for intravenous administration. For oral administration the mixture was further diluted in saline to a final concentration of 1 mg/mL for each compound.
(§2) Three male Sprague-Dawley rats were used in each of the oral and intravenous studies. Animals were fasted overnight prior to administration of compounds. Intravenous administration was achieved by bolus injection of a single 5 mg/kg dose of the 1:1 combination into the cannulated jugular vein of the rats. Cannulation was achieved the day prior to dosing on rats that had been placed under anesthesia using ketamine (IM 30 mg/kg). Oral administration was achieved by oral gavage of a single 5 mg/kg dose. Blood samples (250 μL) were collected from the dosed rats at various times post-dosing (2 min, 5 min, 10 min, 20 min, 30 min, 1 hr, 2 hr, 3 hr, 4 hr, 5 hr, 6 hr) by retro-orbital sampling of the rats temporarily anesthetized with isoflurane. Blood samples were placed in tubes containing K2-EDTA and stored on ice until centrifuged. Within 30 minutes of collection, plasma was isolated by centrifugation. A 100-μL aliquot was removed, mixed with 200 μL of acetonitrile and stored at −20° C. until further analysis by LC-MS/MS using an Applied Bio-systems API 4000 mass spectrometer.
(§3) Samples were analyzed for the presence of the administered compound, the corresponding ketone (pentoxifylline and Compound 409) and the corresponding M5 metabolite. Samples (10 μL) were injected into a Zorbax SB-C8 (Rapid Resolution) column (2.1×30 mm, 3.5 μm). The initial mobile phase condition was 100% A (10 mM ammonium acetate in water) and 0% B (methanol) with a flow rate at 0.5 mL/min. Mobile phase B was allowed to reach 55% in 3 minutes and from 55% to 90% in 1 minute before ramping back to 0% in another minute. The overall run time was 5 minutes. For pentoxifylline and its M1 and M5 metabolites, the precursor/product ion pairs were set at m/z 281/193 (M1), m/z 279/181 (pentoxifylline), and m/z 267/221 (M5).
(§4) For Compound 435(S) and Compound 409 more than one ion pair was set up for to detect species that arose from loss of deuterium. […] This loss of deuterium appears to occur both in vivo and ex vivo by an unknown mechanism. The addition of acetonitrile to serum samples was used to stop any additional ex vivo deuterium loss prior to analysis. Typically, no more than 2 deuterium atoms were replaced by hydrogen. For Compound 435(S), there is a deuterium at the methinyl position which was lost upon oxidation to the keto-compound 409. Reduction of 409 to an M1 metabolite introduced a proton at the methinyl position. When serum from animals dosed with 435(S) were analyzed to quantitate administered compound and metabolites, compound species were included with one and two less side chain deuteriums in the total amounts (referred to hereinafter as the “−1D” and the “−2D” species). Thus, for Compound 435(S) and Compound 409 separate ion pairs were set up to detect the compound and its corresponding −1D and −2D species. For Compound 435(S) three ion pairs were detected: m/z 291/197, 290/197, and […]. For Compound 409 ion pairs of m/z 288/186, 287/186 and 286/186 were monitored. Inclusion of −1D and −2D species in the measurements of Compound 409 and Compound 435(S) more accurately quantitates the total active species and is reasonable based on what is known about the metabolism and activities of pentoxifylline and its M-1 metabolites. Increased plasma exposure to Compound 409 or any M-1 metabolites of 409 would be desirable. This includes the −1D and −2D species.
(§5) [drawing 78] which has no deuterium on its acid side chain, only one ion pair was used at m/z 271/225. The internal standard for the analysis was indiplon.

[2] = Pharmacokinetic study of pentoxifylline and Compound 435(S) in chimps after oral dosing (Example 38); format: in vivo; settings: for % Difference in AUC0-∞ Female (deuterated vs nondeuterated species) / % Difference in AUC0-∞ Male (deuterated vs nondeuterated species): oral; for AUC(0-inf): oral gavage 75 mg each of pentoxifylline and 435(S) as 1:1 mixture, species named in label measured in plasma
Procedure: Pentoxifylline and Compound 435(S) were separately dissolved in warm (65° C.) saline at a concentration at 10 mg/mL. A 1:1 mixture of the two compounds was then prepared containing a final concentration of 5 mg/mL of each compound and the mixture was then sterile filtered through a 0.2-μm filter.
Two chimps (one male and one female) were used in each of the oral and intravenous studies. Animals were fasted overnight prior to administration of compounds. All animals were sedated with ketamine (approximately 10 mg/kg) and/or telazol (approximately 5 mg/kg) prior to dosing. Intravenous administration was achieved by IV infusion of 75 mg of each compound (15 mL total dosing solution) over 10 minutes. Oral administration was achieved by oral gavage of a single 75 mg dose of each compound (15 mL total dosing solution). Blood samples (6 mL) were collected from the dosed chimps at various times prior to and after dosing. For intravenous administrations blood samples were collected at 0 min (preinfusion), 5 min, 9.5 min (immediately before the end of the infusion), then 6, 15, 30 and 45 min, and 1, 2, 4, 6, 8, 10 and 12 hr after the infusion is stopped. For oral administrations, blood samples were collected at 0 min (predose), 15 and 30 min, and 1, 1.5, 2, 4, 6, 8, 10 and 12 hr postdose.
Blood samples were placed in tubes containing sodium heparin, mixed and stored on ice until centrifuged. Within 30 minutes of collection, plasma was isolated by centrifuging the blood samples and removing an aliquot (200 μL) of the resulting plasma. Each 200-μL aliquot of plasma was mixed with 400 μL acetonitrile and stored at −70° C. until further analysis by LC-MS/MS using an Applied Bio-systems API 4000 mass spectrometer.
The analysis of all samples by LC-MS/MS was performed as described above for the rat plasma samples in Example 37.

[3] = Pharmacokinetic study in rats of (S)-M1 and Compound 435(S) after intravenous dosing (Example 37); format: in vivo, male Sprague-Dawley rats; settings: for AUC(0-inf): male, Sprague-Dawley, rat
Procedure: as §1, §2, §3, §4, §5

[4] = Pharmacokinetic study of pentoxifylline and Compound 435(S) in chimps after oral dosing (Example 39); format: in vivo; settings: for % Difference in AUC0-12 Female (deuterated vs nondeuterated species) / % Difference in AUC0-12 Male (deuterated vs nondeuterated species): oral
Procedure: Pentoxifylline and Compound 435(S) were tested according to a protocol similar to the Oral Dosing protocol followed in Example 38, except that (a) the compounds were separately dissolved in water rather than saline; (b) the mixture of the two compounds was not sterile filtered; and (c) oral administration was achieved by oral gavage of a single 65 mg dose of each compound (13 mL total dosing solution).

[5] = intravenous bolus single 5 mg/kg dose of 1:1 combination of (S)-M1 and 435(S), species named in label measured in plasma
[6] = male, Sprague-Dawley, rat, oral gavage single 5 mg/kg dose, 1:1 mixture of (S)-M1 and 435(S), species named in label measured in plasma, −1D and −2D species included
[7] = female chimp, read-out: AUC0-∞ Female
[8] = male chimp, read-out: AUC0-∞ Male
[9] = female chimp, oral gavage 65 mg each of pentoxifylline and 435(S) in water, species named in label measured in plasma, read-out: AUC0-12 Female
[10] = male chimp, oral gavage 65 mg each of pentoxifylline and 435(S) in water, species named in label measured in plasma, read-out: AUC0-12 Male

AUC(0-inf) [1, 6] [ng·h/mL]	% Difference in AUC0-∞ (deuterated vs nondeuterated species) ([1]; oral)	AUC(0-inf) [3, 5] [ng·h/mL]	SMILES	% Difference in AUC0-∞ Female (deuterated vs nondeuterated species) ([2]; female chimp)	AUC(0-inf) [2, 7] [ng·h/mL]	% Difference in AUC0-∞ Male (deuterated vs nondeuterated species) ([2]; male chimp)	AUC(0-inf) [2, 8] [ng·h/mL]	% Difference in AUC0-12 Female (deuterated vs nondeuterated species) ([4]; female chimp)	AUC(0-t) [4, 9] [ng·h/mL]	% Difference in AUC0-12 Male (deuterated vs nondeuterated species) ([4]; male chimp)	AUC(0-t) [4, 10] [ng·h/mL]	further results
			C[C@H](O)CCCCn1c(=O)c2c(ncn2C)n(C)c1=O [(S)-M1, reference compound]									Ratio of active species (M1 alcohol + ketone) to M5 metabolite ([1]; oral administration, from AUC0-∞): 1.6; Cmax ([1]; oral gavage single 5 mg/kg dose, 1:1 mixture of (S)-M1 and 435(S), species named in label measured in plasma): 1570 ± 249 ng/mL; AUC0-∞ ([1]; oral gavage single 5 mg/kg dose, 1:1 mixture of (S)-M1 and 435(S), species named in label measured in plasma, −1D and −2D species included): 1628 ± 272 ng·h/mL; AUC0-∞ Female ([2]; in vivo, po, 75 mg): 301 ng·h/mL; AUC0-∞ Male ([2]; in vivo, po, 75 mg): 300 ng·h/mL; Ratio of active species to the corresponding M5 metabolite ([3]; intravenous administration): 3.5; AUC0-∞ [3, 5]: 3390 ± 302 ng·h/mL; AUC0-12 Female ([4]; female chimp, oral gavage 65 mg each of pentoxifylline and 435(S) in water, species named in label measured in plasma): 88 ng·h/mL; AUC0-12 Male ([4]; male chimp, oral gavage 65 mg each of pentoxifylline and 435(S) in water, species named in label measured in plasma): 75 ng·h/mL
4510 ± 1020	+177%	7130 ± 816	[2H]c1nc2c(c(=O)n(CCCC([2H])([2H])[C@@]([2H])(O)C([2H])([2H])[2H])c(=O)n2C)n1C([2H])([2H])[2H] [Compound 435(S), (S)-8-d1-1-(4,4,5,6,6,6-d6-5-Hydroxyhexyl)-3-methyl-7-(methyl-d3)-1H-purine-2,6(3H,7H)-dione]	+123%	672	+176%	829	+108%	183	+185%	214	Cmax ([1]; male, Sprague-Dawley, rat, oral gavage single 5 mg/kg dose, 1:1 mixture of (S)-M1 and 435(S), species named in label measured in plasma, read-out: Cmax): 4100 ± 964 ng/mL; % Difference in Cmax (deuterated vs nondeuterated species) ([1]; oral): +162%
1920 ± 183	−36%	1520 ± 530	[2H]c1nc2c(c(=O)n(CCCC(=O)O)c(=O)n2C)n1C([2H])([2H])[2H] [Deuterated M5 (M5a)]	−68%	606	−68%	462	−25%	609	−18%	667	% Difference in AUC0-∞ (deuterated vs nondeuterated species) ([3]; intravenous): −15%; Amount of M5a metabolite less than amount of M5 metabolite ([3]; intravenous administration of Compound 435(S) vs (S)-M1): 15%
